This is an account of results in US11629135B2 (JUBILANT PRODEL LLC, priority 2017, dated 2023).

Data set [1] is described as follows: Intravenous and oral pharmacokinetics in mice. The settings on record: for Vd: iv, 2 mg/kg; for half-life: read-out: t1/2, β (converted). Format: in vivo, Balb/c mice. From the text: Pharmacokinetics Evaluation of Compound-45: Animal Experiments Details
Institutional Animal Ethical Committee (IAEC) of Jubilant Biosys (IAEC/JDC/2018/158) nominated by CPCSEA (Committee for the Purpose of Control and Supervision of Experiments on Animals) approved the mice pharmacokinetic experiments. Male Balb/c mice (˜6-8 weeks old with body weight range of 22-25 g) were procured from Vivo Biotech, Hyderabad, India. Animals were quarantined in Jubilant Biosys Animal House for a period of 7 days with a 12:12 h light:dark cycles, and prior study the animals were stratified as per body weight. Animals had free access to feed (Altromin Spezialfutter GmbH & Co. KG., Im Seelenkamp 20, D-32791, Lage, Germany) and water ad-libitum.
Intravenous and oral pharmacokinetics study was done at a dose of 2 and 10 mg/kg and at a dose volume of 10 mL/kg. Serial blood samples (200 μL) were collected from retro-orbital plexus at 0.083 (Only for IV), 0.15, 0.5, 1, 2, 4, 8, 10 (only for PO) and 24 h. Blood samples collected in tubes containing K2.EDTA as anticoagulant and centrifuged for 5 min at 14000 rpm in a refrigerated centrifuge (Biofuge, Heraeus, Germany) maintained at 4° C. for plasma separation.
Group I (PO) (22-25 g) received compound-45 at 10 mg/Kg (suspension formulation prepared using 0.5% methylcellulose and Tween-80; dose volume: 10 mL/Kg), whereas group II received IV (24-25 g) received compound-45 intravenously [5% DMSO, 5% Solutol:absolute alcohol (1:1, v/v) and 90% of normal saline; strength: 0.2 mg/mL; dose volume: 10 mL/Kg] at 2.0 mg/Kg dose. Post-dosing serial blood samples (200 μL), sparse sampling was done and at each time point three mice were used for blood sampling) were collected at regular intervals using heparinized capillaries through retro-orbital plexus into polypropylene tubes containing K2.EDTA solution as an anti-coagulant. Animals were allowed to eat feed 2 h post dose of compound-45. Blood concentration-time data of compound-45 was analyzed by non-compartmental method using Phoenix WinNonlin Version 7.0.

A further data set has as its target T1, PD-1/PD-L1 interaction (Homo sapiens, UniProt Q9NZQ7).
T1 construct: Tag1 or Tag2 (undisclosed kit tag); purchased CisBio 63ADK000CPAPEG
As to the kind of experiment: PD-1/PD-L1 Homogenous Time-Resolved Fluorescence (HTRF) binding assay. To be noted: Biochemical PD1/PD-L1 inhibition. As to the method:
PD-L1 Enzyme Assay: Homogenous Time-Resolved Fluorescence (HTRF) Binding Assay
All binding studies were performed using PD-1/PD-L1 Binding Assay Kit from CisBio (Catalog #63ADK000CPAPEG), according to the manufacturer's protocol. The interaction between Tag1-PD-1 and […] was detected by anti-Tag1-Eu^3+ (HTRF donor) and anti-Tag2-XL665 (HTRF acceptor). When the donor and acceptor antibodies were brought to close proximity due to PD-1 and PD-L1 binding, excitation of the donor antibody triggered fluorescent resonance energy transfer (FRET) towards the acceptor antibody, which in turn emitted specifically at 665 nm. This specific signal is positively proportional to PD-1/PD-L1 interaction. The compounds blocking PD-1/PD-L1 interaction will cause a reduction in HTRF signal. The necessary reagents were mixed in the following order: 2 μl compounds (or diluents buffer), 4 μl PD-L1 protein, 4 μl PD-1 protein. After an incubation of 15 minutes, 5 μl of anti-Tag1-Eu^3+ and 5 μl of anti-Tag2-XL665 were added. The plate was sealed and incubated at RT for 1 h. The fluorescence emission was read at two different wavelengths (665 nm and 620 nm) on a BMG PheraStar® multiplate reader. Results were calculated from the 665 nm and 620 nm fluorescence signal and expressed in HTRF ratio=(665 nm/620 nm)×[…].
(In general: Time-resolved FRET reads energy transfer from a long-lived donor to a nearby acceptor.)

Another data set deals with T2, CYP 2D6 (Homo sapiens, UniProt P10635).
T2 construct: assessed in human liver microsomes (procured from GIBCO Invitrogen); tissue GIBCO Invitrogen; host or cells: human liver microsomes
As to the kind of experiment: CYP inhibition in human liver microsomes (CYP2D6). It counts as in vitro ADME. To be noted: hydroxylation of bufuralol, read-out: predicted IC50, CYP 2D6. How it is done:
CYP inhibition potential of compound was assessed in human liver microsomes (procured from GIBCO Invitrogen) against CYP3A4, 2D6, 2C9, 2C19 and 1A2 in the following sequential steps. Standard reaction mixture (final volume 300 μL) contained […] potassium phosphate buffer (pH 7.4), protein (0.1, 0.25, 0.5, 0.5 and 0.5 mg/mL concentration for CYP3A4, 2D6, 2C9 2C19 and 1A2 respectively) and compound (at eight different concentration levels ranging from […], added as 0.9 μL DMSO solution with a final DMSO concentration of […]). The mixtures were pre-incubated at 37±1° C. for 5 min. The reaction (in duplicate) was initiated by addition of 30 μL of NADPH (10 mM). Reaction was terminated at 10 min by adding 300 μL of acetonitrile. The activity of liver microsomes was confirmed with positive controls i.e., monitoring the hydroxylation of midazolam for CYP 3A4, hydroxylation of bufuralol for CYP 2D6, hydroxylation of diclofenac for CYP 2C9, hydroxylation of omeprazole for CYP2C19 and O-Deethylation for CYP 1A2. The reaction mixtures (obtained from the above studies) were extracted, processed and analyzed by LC-MS [Shimadzu SIL LC series (Kyoto, Japan) was coupled to an API-4000 Mass Spectrometer (MDS Sciex, Toronto, Canada)].

[2] abbreviates: male, mouse, plasma, Balb C mice, IV dose of 2 mg/Kg.
Where [3] appears, read: male, mouse, plasma, Balb C mice, oral dose of 10 mg/Kg.

Like-named read-outs stand apart in the source and are kept apart here.

T2 sequence (P10635 whole entry): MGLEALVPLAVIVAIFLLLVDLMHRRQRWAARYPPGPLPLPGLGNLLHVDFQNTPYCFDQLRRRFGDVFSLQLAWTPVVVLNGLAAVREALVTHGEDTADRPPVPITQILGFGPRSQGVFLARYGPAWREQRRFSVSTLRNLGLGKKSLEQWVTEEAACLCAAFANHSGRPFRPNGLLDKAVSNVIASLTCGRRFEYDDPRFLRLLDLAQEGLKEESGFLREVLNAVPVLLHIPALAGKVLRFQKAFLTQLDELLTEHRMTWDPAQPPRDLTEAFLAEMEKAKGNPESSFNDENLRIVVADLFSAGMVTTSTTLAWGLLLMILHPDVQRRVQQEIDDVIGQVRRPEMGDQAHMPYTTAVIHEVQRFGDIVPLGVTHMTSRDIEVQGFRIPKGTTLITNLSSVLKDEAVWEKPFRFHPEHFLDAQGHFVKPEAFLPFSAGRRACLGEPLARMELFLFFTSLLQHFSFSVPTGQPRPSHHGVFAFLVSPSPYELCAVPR
T1 sequence (Q9NZQ7 19-238 limits assumed): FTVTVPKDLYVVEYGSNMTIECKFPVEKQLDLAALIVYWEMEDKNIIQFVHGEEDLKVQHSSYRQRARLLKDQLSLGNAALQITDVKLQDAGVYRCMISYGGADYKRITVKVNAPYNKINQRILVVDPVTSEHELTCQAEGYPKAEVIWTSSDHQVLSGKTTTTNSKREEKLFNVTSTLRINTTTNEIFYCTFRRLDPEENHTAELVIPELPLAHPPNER

With `COc1nc(OCc2cccc(-c3ccccc3)c2C)nc(OC)c1CN1CCCC[C@H]1C(=O)O` [Compound 45, (S)-1-((4,6-dimethoxy-2-((2-methyl-[1,1′-biphenyl]-3-yl)methoxy)pyrimidin-5-yl)methyl)piperidine-2-carboxylic acid], in data set [1] (Balb C mice, IV dose of 2 mg/Kg), the Tlast amounted to 8.00 h. In data set [1] (Balb C mice, oral dose of 10 mg/Kg), this compound yielded a Tlast of 24.0 h. In addition, the “Oral bioavailability (F %)” value in data set [1] (Balb C mice, oral dose of 10 mg/Kg, 10 mg/kg) was determined as 90.6%. For the same compound, the Vd in data set [1] (male, Balb/c, mouse, plasma, Balb C mice, IV dose of 2 mg/Kg, read-out: Vd) came out at 0.74 L/kg. In data set [1] (male, Balb/c, mouse, plasma, Balb C mice, IV dose of 2 mg/Kg, read-out: Vdss), the Vd turned out to be 1.2 L/kg. For the same compound, in data set [1] (male, Balb/c, mouse, plasma, po, 10 mg/kg, Balb C mice, oral dose of 10 mg/Kg, read-out: Oral bioavailability (F %)), the bioavailability turned out to be 91%. In data set [1] (setting [2]), this compound gave an AUC(0-inf) of 4920 ng·h/mL, an AUC(0-t) of 4480 ng·h/mL, a Cmax of 2110 ng/mL and a clearance of 6.77 mL/min/kg. For the same compound, the half-life in data set [1] (setting [2]) is 76.2 min. Moreover, the C0 in data set [1] (male, mouse, plasma, Balb C mice, IV dose of 2 mg/Kg, extrapolated, calculated manually using initial 3 time points) is 2130 ng/mL. Besides, in data set [1] (setting [3]), the AUC(0-inf) is 21100 ng·h/mL, the AUC(0-t) was 20300 ng·h/mL, the Cmax was determined as 4840 ng/mL and the Tmax was 30 min. Besides, the half-life in data set [1] (setting [3]) is 379 min. Moreover, in data set [1] (mice, intravenous), the “clearance as share of hepatic blood flow (HBF)” value is 8 % hepatic blood flow and the “volume of distribution relative to total body water (TBW)” value is on record as 40 times. The 50% inhibitory concentration (IC50) on PD-1/PD-L1 interaction was below 100 nM. Besides, the half-maximal inhibitory concentration (IC50) on CYP 2D6 is above 10 µM.

One may read the bioavailability as the share of a dose that reaches the circulation, judged against a reference dose that is usually intravenous. For orientation: AUC(0-inf) means total exposure, with the tail of the curve extrapolated. The low end stands for less exposure, the high end for more exposure. Broadly, the AUC(0-t) is exposure summed from dosing to a finite time, without extrapolation to infinity. In general, Cmax refers to the peak of the concentration-time curve. Usually Tmax stands for the time from dosing to the highest level. As a reminder, the IC50 is the concentration that gives 50% inhibition.
